Target: T1, EPHA6 (Homo sapiens, UniProt Q9UF33)
T1 construct: purchased Thermo Fisher Scientific (Life Technologies) SelectScreen
Experiment: SelectScreen LanthaScreen
Type: binding
Conditions: read-out: % displacement
Procedure, shortened: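 Percent values come from Thermo SelectScreen profiling of NU5455, combining activity and binding assays. CSF1R was run in Z'LYTE format at Km app ATP, and CAMK1 in Adapta format with ATP listed at 10.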

T1 sequence (Q9UF33 23-1036): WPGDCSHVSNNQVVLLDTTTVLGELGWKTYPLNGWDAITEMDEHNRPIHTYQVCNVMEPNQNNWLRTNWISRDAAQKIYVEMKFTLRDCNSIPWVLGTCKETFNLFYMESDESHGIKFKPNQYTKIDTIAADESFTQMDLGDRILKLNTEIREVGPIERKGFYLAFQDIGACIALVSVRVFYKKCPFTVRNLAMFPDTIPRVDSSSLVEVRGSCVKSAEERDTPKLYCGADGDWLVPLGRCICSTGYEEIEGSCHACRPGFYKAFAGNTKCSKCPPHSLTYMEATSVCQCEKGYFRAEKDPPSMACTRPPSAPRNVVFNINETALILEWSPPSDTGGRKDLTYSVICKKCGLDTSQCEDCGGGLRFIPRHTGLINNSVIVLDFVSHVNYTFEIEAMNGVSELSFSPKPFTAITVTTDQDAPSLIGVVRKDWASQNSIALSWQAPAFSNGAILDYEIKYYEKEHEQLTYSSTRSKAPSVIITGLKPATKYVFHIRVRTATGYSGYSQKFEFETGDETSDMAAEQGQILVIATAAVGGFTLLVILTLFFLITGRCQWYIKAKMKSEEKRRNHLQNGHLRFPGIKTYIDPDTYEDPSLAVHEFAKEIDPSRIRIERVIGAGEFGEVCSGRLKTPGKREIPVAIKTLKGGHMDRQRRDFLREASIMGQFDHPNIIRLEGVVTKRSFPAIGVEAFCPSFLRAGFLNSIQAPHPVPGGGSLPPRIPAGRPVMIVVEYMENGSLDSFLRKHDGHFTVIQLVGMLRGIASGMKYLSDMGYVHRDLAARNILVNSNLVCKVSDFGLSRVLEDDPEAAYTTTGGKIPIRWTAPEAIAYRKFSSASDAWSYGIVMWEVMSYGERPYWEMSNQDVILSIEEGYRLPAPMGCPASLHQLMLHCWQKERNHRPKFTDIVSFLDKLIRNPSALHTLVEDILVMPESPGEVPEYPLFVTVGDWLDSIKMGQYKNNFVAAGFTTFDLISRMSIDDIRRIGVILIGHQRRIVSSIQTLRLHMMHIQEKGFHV

CN(C(=O)CN1CCOCC1)c1ccc2sc3c(-c4cccc5c(=O)cc(N6CC7CCC(C6)O7)oc45)cccc3c2c1 [NU5455]
inhibition at 1 µM: 1.6%
